The results in this text go back to article PMC8269394, “Characterization of an Atypical Trypanosoma brucei Hsp70 Demonstrates Its Cytosolic-Nuclear Localization and Modulation by Quercetin and Methylene Blue” (International Journal of Molecular Sciences, 2021).

Common to all, as to assay: ATPase assay, colorimetric phosphate release
Assay type in all cases: biochemical

Test [1] deals with T1, TbHsp70.c (Trypanosoma brucei, UniProt Q383E9).
T1 construct: gene Tb11.01.3080
The following applies: 600 µM ATP; 37 °C; no Tbj2.

In test [2] the target is T2, TcHsp70B (Trypanosoma cruzi, UniProt P05456).
T2 construct: gene HSP70
The following applies: 600 µM ATP; 37 °C; no Tbj2.

Test [3] has as its target T3, TbHsp70.c-Tbj2 (Trypanosoma brucei, UniProt Q383E9).
T3 construct: gene Tb11.01.3080; recombinant purified TbHsp70.c with recombinant co-chaperone Tbj2 at equal concentration; with Chaperone protein DnaJ, putative (type I J-protein Tbj2)
The following applies: 30 µM methylene blue; 1 µM each protein; 600 µM ATP; 37 °C; activator. The source says: ATPase assay, colorimetric phosphate release on TbHsp70.c-Tbj2 | in the presence of Tbj2, methylene blue enhanced the ATPase activity of TbHsp70.c

The target of test [4] is T1, TbHsp70.c. The following applies: 30 µM quercetin; 0.4 µM protein; 600 µM ATP; 37 °C; no Tbj2.
The target in the next test is T4, TcHsp70B-Tbj2 (Trypanosoma cruzi, UniProt P05456).
T4 construct: gene HSP70; mixed species: recombinant T. cruzi TcHsp70B with recombinant T. brucei co-chaperone Tbj2; with Chaperone protein DnaJ, putative (type I J-protein Tbj2, Trypanosoma brucei)
The following applies: 30 µM quercetin; 0.4 µM each protein; 600 µM ATP; 37 °C.

Test [5] deals with T3, TbHsp70.c-Tbj2. The following applies: 30 µM quercetin; 0.4 µM each protein; 600 µM ATP; 37 °C.
The target of test [6] is T2, TcHsp70B. As to conditions: 30 µM quercetin; 0.4 µM protein; 600 µM ATP; 37 °C; no Tbj2.

SMILES strings stand for the structures.

T2 sequence (P05456 whole entry): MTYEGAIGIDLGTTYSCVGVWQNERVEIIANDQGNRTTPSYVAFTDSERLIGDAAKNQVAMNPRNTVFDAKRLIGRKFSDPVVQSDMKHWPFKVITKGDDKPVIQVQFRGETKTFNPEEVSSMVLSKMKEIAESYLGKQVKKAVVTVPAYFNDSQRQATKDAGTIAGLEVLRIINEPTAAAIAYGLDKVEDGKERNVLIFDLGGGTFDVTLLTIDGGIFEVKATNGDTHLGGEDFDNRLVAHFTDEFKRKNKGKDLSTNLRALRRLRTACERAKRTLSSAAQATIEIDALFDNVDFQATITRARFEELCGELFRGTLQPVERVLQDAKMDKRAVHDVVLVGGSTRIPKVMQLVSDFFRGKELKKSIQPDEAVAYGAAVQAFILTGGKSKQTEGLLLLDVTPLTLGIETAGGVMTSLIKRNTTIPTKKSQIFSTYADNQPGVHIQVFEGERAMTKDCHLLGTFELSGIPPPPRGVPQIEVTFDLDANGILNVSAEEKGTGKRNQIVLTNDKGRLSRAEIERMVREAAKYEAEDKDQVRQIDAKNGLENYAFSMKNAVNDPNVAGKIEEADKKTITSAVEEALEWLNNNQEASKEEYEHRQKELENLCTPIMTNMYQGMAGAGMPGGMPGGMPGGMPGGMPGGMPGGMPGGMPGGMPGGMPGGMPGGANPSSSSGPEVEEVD
T3 sequence (Q383E9 1-676): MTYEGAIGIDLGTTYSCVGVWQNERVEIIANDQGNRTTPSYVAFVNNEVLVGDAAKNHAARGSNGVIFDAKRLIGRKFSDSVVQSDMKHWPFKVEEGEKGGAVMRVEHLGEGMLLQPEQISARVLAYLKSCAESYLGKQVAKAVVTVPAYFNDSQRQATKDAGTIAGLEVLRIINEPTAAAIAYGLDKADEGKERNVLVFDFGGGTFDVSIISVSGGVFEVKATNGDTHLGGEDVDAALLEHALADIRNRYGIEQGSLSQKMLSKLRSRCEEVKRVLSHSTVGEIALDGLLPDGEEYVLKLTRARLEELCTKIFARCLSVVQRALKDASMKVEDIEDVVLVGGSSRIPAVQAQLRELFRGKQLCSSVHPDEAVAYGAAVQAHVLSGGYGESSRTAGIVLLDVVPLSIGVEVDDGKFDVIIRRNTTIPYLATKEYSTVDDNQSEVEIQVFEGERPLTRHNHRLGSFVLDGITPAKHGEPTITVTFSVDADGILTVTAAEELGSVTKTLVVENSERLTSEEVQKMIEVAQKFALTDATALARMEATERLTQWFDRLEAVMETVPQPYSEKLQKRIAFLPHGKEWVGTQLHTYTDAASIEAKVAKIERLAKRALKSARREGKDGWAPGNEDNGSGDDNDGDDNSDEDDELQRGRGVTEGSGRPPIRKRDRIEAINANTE
T3 sequence (Q585V4 1-404 partner): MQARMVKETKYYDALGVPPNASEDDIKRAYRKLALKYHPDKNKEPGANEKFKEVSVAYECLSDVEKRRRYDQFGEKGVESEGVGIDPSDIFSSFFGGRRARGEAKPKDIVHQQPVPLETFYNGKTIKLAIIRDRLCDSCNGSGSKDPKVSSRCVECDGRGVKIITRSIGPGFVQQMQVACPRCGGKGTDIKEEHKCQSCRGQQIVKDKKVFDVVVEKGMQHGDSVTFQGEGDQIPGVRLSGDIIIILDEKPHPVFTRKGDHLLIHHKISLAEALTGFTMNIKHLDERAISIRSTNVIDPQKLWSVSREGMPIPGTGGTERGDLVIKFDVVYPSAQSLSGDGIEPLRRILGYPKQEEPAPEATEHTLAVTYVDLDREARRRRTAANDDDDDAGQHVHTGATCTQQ
T1 sequence (Q383E9 1-676): as the sequence (Q383E9 1-676) above
T4 sequence (P05456 whole entry): as the sequence (P05456 whole entry) above
T4 sequence (Q585V4 1-404 partner): as the sequence (Q585V4 1-404 partner) above

With `Nc1ncnc2c1ncn2[C@@H]1O[C@H](COP(=O)(O)OP(=O)(O)OP(=O)(O)O)[C@@H](O)[C@H]1O` [ATP], the “ATPase assay, colorimetric phosphate release” value at TbHsp70.c [1] and at TcHsp70B [2] was “Inorganic phosphate released by ATP in the presence of each Hsp70 was monitored” each time.
With `CN(C)c1ccc2nc3ccc(=[N+](C)C)cc-3sc2c1` [methylene blue], on TbHsp70.c-Tbj2 [3], the “fold increase in Tbj2-stimulated ATPase at 30 μM” value is given as 1.5 fold.
As to `O=c1c(O)c(-c2ccc(O)c(O)c2)oc2cc(O)cc(O)c12` [quercetin, 3,3′,4′,5,7-Pentahydroxyflavone], the “basal ATPase inhibition at 30 μM” value at TbHsp70.c [4] is “Our findings suggest that quercetin inhibits the basal ATPase activity of TbHsp70.c”. For the same compound, the “fold inhibition of Tbj2-stimulated ATPase at 30 μM” value on TcHsp70B-Tbj2 was 1.4 fold; at TbHsp70.c-Tbj2 [5], 9.3 fold. The “fold inhibition of basal ATPase at 30 μM” value at TcHsp70B [6] stood at 1.3 fold.
